Earlier results in patent publication US12004493B2, “Late-onset Alzheimer's disease animal model and uses thereof” (The Board of Regents of the University of Oklahoma, priority 2018, dated 2024).

Tested on: early-phase AD patients
Details: DAO inhibitor

SMILES: O=C([O-])c1ccccc1.[Na+] [Sodium benzoate]
- cognitive and overall functions: improved cognitive and overall functions
